Values after ≈ are worked out from the molar mass of the structure shown.
What was measured:
[1] = Relative concentrations of Rapa metabolites in pooled whole blood patient samples (LC/MS); type: in vivo; details: Rapa = 1
From the text: No individual metabolite is found at a concentration greater than 20% of the Rapa parent level.

lymphocytes = assay: In vitro mixed lymphocyte reaction (MLR) assay, two-way lymphocyte proliferation; type: cell-based; details: Lymphocyte, 3H-thymidine incorporation
From the text: The MLR assay is useful for identifying rapamycin metabolites with biological (immunosupressive) activity and to quantify this activity relative to the immunosuppressive activity of the parent rapamycin molecule.
An example of a two-way lymphocyte proliferation assay procedure useful for this purpose is as follows:
1. Collect blood from two individuals (20 mls each) and isolate lymphocytes using Ficoll-Paque™ (polysucrose and sodium diatrizoate) (Pharmacia Biotech).
2. Count lymphocytes at 1:10 dilution in 2% acetic acid (v/v).
3. Prepare 10 mls of each lymphocyte populations (A+B) at 1×10^6 cells/ml in DMEM/20% FCS (v/v).
4. Set up a 96 well sterile tissue culture plate, flat bottom (Sarstedt, cat # 83.1835). To each well add:
5. Aliquot 100 μl per well lymphocyte population A
6. Aliquot 100 μl per well lymphocyte population B
7. Aliquot 20 μl per well of drug (rapamycin and rapamycin metabolites M1-5) serially diluted 0 to 1000 μg/L in triplicate in DMEM with no supplements.
8. […]
10. […] Wash cells 3× with 1.0-ml sterile distilled water.
Note: All procedures are done using sterile techniques in a biological flow hood.
11. Place filters in Scintilation vials and add 1.5 mls of ScintiSafe Plus™ 50% scintillation fluid (Fisher, cat #SX-25-5).
12. Measure the amount of radioactivity incorporated in the lymphocytes using a beta counter (Micromedic System Inc., TAURUS™ Automatic Liquid Scintillation Counter) for 1.0 minute.
13. Calculate averages and standard deviations for each drug and express results as: [formula]

[2] = [14C]-rapamycin, healthy male volunteers; cited from earlier work

- Relative Concentration in whole blood [1]: 1
Structure (SMILES): CO[C@H]1C[C@@H]2CC[C@@H](C)[C@@](O)(O2)C(=O)C(=O)N2CCCC[C@H]2C(=O)O[C@H]([C@H](C)C[C@@H]2CC[C@@H](O)[C@H](OC)C2)CC(=O)[C@H](C)/C=C(\C)[C@@H](O)[C@@H](OC)C(=O)[C@H](C)C[C@H](C)/C=C/C=C/C=C/1C [Rapa, Rapamycin]
- IC50 (lymphocytes): 0.48 ng/mL (≈ 0.525 nM)
- share of the total radioactivity in blood [2]: approximately 35%

Source: patent publication US6709873B1, “Method for production of antibodies to specific sites of rapamycin” (Isodiagnostika Inc., priority 1997, dated 2004)
